# Measurements from US5861424A, “Composition and method for treating cancer” (priority 1995, dated 1999).
# Like-named read-outs stand apart in the source and are kept apart here.
# Columns and labels:
# [1] = test system: human colon carcinoma cell line CX-1; assay: Colony formation assay, human colon carcinoma CX-1; type: cell-based; settings: Table III; for IC50: Homo sapiens, Colon carcinoma cell, read-out: CX-1 (IC50); for IC50 / CX-1 (IC50): 24 h treatment, colony count after 7 to 10 days; for Selectivity (ratio of IC50 for CV-1 and IC50 for CX-1): CV-1/CX-1
# [2] = test system: human melanoma LOX; assay: Survival of nude mice implanted with human melanoma LOX; type: in vivo, human melanoma in male athymic Swiss nu/nu mouse; settings: Mus musculus, ip, 24 h, read-out: T/C (survival)
# Method: LOX, a human melanoma cell line, grown subcutaneously in nude mice was excised, trypsinized to yield a single cell suspension using a metal grid with a […]. Red blood cells were lysed by incubation with 0.17 molar ammonium chloride at 4° C. for 20 minutes. Five million viable trypan blue negative cells made up in 0.1 ml of Dulbecco modified Eagles' medium (DME) were injected into the peritoneal cavity of a male athymic Swiss nu/nu mouse. The control group and each treatment group consisted of 5 to 10 mice. Treatment was commenced the following day by intraperitoneal injection.
# Ten control mice received 0.25 ml of 2% dextrose on those days the treated groups were injected with the compounds of this invention. The compounds of the General Formulas. (1) to (6) used in this invention which were tested are listed in Table VIII below and the results obtained are shown in Table VIII and FIG. 1-6 of the accompanying drawings. T/C is the ratio, expressed as a percentage of the mean survival age of the treated group to the mean survival age of the untreated control group.
# [3] = test system: normal monkey kidney epithelial cell line CV-1; assay: Colony formation assay, normal monkey kidney epithelial cells CV-1; settings: for IC50: Primates, Epithelial cell;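 as to all read-outs here: colonies visualized by crystal violet staining, incubation at 37 °C, IC50 relative to untreated wells given culture medium alone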
# [4] = test system: human pancreatic carcinoma CRL 1420 cell line; assay: Colony formation assay, human pancreatic carcinoma CRL 1420; type: cell-based; settings: Table VII; for IC50: Homo sapiens, 24 h; for Selectivity (CV-1 IC50 / CRL-1420 IC50): CV-1/CRL-1420
# Source text: (§1) The control received culture media only.
# The Selectivity values, CRL 1420 values and CV-1 values for compounds of the General Formulas (1) to (6) used in the present invention are shown in Table VII below.
# [5] = test system: human bladder carcinoma EJ cell line; assay: Colony formation assay, human bladder carcinoma EJ; type: cell-based; settings: Table IV
# Source text: as §1
# [6] = test system: human melanoma LOX cell line; assay: Colony formation assay, human melanoma LOX; type: cell-based; settings: Table V; for IC50: Homo sapiens, LOX, 24 h, read-out: LOX (IC50); for Selectivity (CV-1 IC50 / LOX IC50): CV-1/LOX
# Source text: as §1
# [7] = test system: human breast carcinoma MCF-7 cell line; assay: Colony formation assay, human breast carcinoma MCF-7; type: cell-based; settings: Table VI
# Source text: as §1
# The Selectivity values, MCF-7 values and CV-1 values for compounds of the General Formulas (1) to (6) used in the present invention are shown in Table VI below.
# [8] = read-out: CV-1 (IC50), Table III, 24 h treatment, colony count after 7 to 10 days
# [9] = read-out: CV-1 (IC50), Table VII
# [10] = Table III, 24 h treatment, colony count after 7 to 10 days
compound,measurement,setting,value
CCC[n+]1c(C=c2sc(=CC=C3Sc4c(ccc5ccccc45)N3CC)c(=O)n2CC)sc2cc(C)c(OCC)cc21 [Compound 6],IC50,[1],0.025 µg/mL
same,Selectivity (ratio of IC50 for CV-1 and IC50 for CX-1),[1],400
same,response vs control in vivo at 5 mg/kg,"[2]; i.p. on day 1, 3, 5, 7",126%
same,IC50,[3]; read-out: CV-1 (IC50),10 µg/mL
CCN1C(=CC=c2sc(=Cc3sc4c5ccccc5ccc4[n+]3CC)n(CC)c2=O)Sc2ccc3ccccc3c21 [Compound 31],IC50,[1],0.025 µg/mL
same,Selectivity (ratio of IC50 for CV-1 and IC50 for CX-1),[1],400
same,response vs control in vivo at 40 mg/kg,"[2]; 40 mg/kg, i.p. on day 1, 2, 3, 4, 8, 10, 17",169%
same,IC50,[3]; [8],10 µg/mL
CCN1C(=CC=c2sc(=Cc3sc4c5ccccc5ccc4[n+]3C)n(CC)c2=O)Sc2ccc3ccccc3c21 [Compound 33],IC50,[1],0.02 µg/mL
same,Selectivity (ratio of IC50 for CV-1 and IC50 for CX-1),[1],1000
same,response vs control in vivo at 10 mg/kg,"[2]; i.p. on day 1, 2, 3, 4, 5, 7, 8, 9, 10, 11",173%
same,IC50,[3]; [8],20 µg/mL
CCN1C(=CC=c2sc(=Cc3scc[n+]3CC)n(CC)c2=O)Sc2ccc3ccccc3c21 [Compound 41],IC50,[4]; 24 h treatment,0.05 µg/mL
same,Selectivity (CV-1 IC50 / CRL-1420 IC50),[4],120
same,response vs control in vivo at 5 mg/kg,"[2]; i.p. on day 1, 5, 9",128%
same,IC50,[3]; [9],1.5 µg/mL
CCN1C(=CC=c2sc(=Cc3sc4c5ccccc5ccc4[n+]3CC)n(CC)c2=O)Sc2ccc3ccccc3c21 [Compound 51],IC50,[4]; 24 h treatment,0.07 µg/mL
same,Selectivity (CV-1 IC50 / CRL-1420 IC50),[4],286
same,CX-1 (IC50),[1],0.03 µg/mL
same,Selectivity (ratio of IC50 for CV-1 and IC50 for CX-1),[1],333
same,response vs control in vivo at 20 mg/kg,"[2]; i.p. on day 1, 2, 3, 6, 9, 13",174%
same,IC50,"[5]; Homo sapiens, EJ, 24 h, 24 h treatment, read-out: EJ (IC50)",0.04 µg/mL
same,IC50,[6]; 24 h treatment,0.09 µg/mL
same,Selectivity (CV-1 IC50 / LOX IC50),[6],222
CCN1C(=CC=c2sc(=Cc3sc4c5ccccc5ccc4[n+]3C)n(CC)c2=O)Sc2ccc3ccccc3c21 [Compound 52],CRL-1420 (IC50),[4]; 24 h treatment,0.06 µg/mL
same,Selectivity (CV-1 IC50 / CRL-1420 IC50),[4],> 333
same,CX-1 (IC50),[1],0.03 µg/mL
same,Selectivity (ratio of IC50 for CV-1 and IC50 for CX-1),[1],> 667
same,response vs control in vivo at 10 mg/kg,"[2]; i.p. on day 1, 2, 3, 6, 9",168%
same,EJ (IC50),[5]; 24 h treatment,0.05 µg/mL
same,Selectivity (CV-1 IC50 / EJ IC50),[5]; CV-1/EJ,> 400
same,MCF-7 (IC50),[7]; 24 h treatment,0.03 µg/mL
same,Selectivity (CV-1 IC50 / MCF-7 IC50),[7]; CV-1/MCF-7,> 666
same,LOX (IC50),[6]; 24 h treatment,0.08 µg/mL
same,Selectivity (CV-1 IC50 / LOX IC50),[6],> 250
same,CV-1 (IC50),[3]; [10],> 20 µg/mL
same,CV-1 (IC50),[3]; Table IV,> 20 µg/mL
same,CV-1 (IC50),[3]; Table V,> 20 µg/mL
same,CV-1 (IC50),[3]; Table VI,> 20 µg/mL
same,CV-1 (IC50),[3]; Table VII,> 20 µg/mL
CCN1C(=CC=c2sc(=Cc3sc4c5ccccc5ccc4[n+]3CCO)n(CC)c2=O)Sc2ccc3ccccc3c21 [Compound 53],IC50,[4]; 24 h treatment,0.18 µg/mL
same,Selectivity (CV-1 IC50 / CRL-1420 IC50),[4],111
same,IC50,[1],0.05 µg/mL
same,Selectivity (ratio of IC50 for CV-1 and IC50 for CX-1),[1],400
same,response vs control in vivo at 20 mg/kg,"[2]; i.p. on day 1, 3, 6, 9, 13, 16",222%
same,IC50,[3]; [8],20 µg/mL
same,IC50,[3]; [9],20 µg/mL
CCN1C(C)=CSC1=CC=c1sc(=Cc2sc3ccccc3[n+]2CC)n(CC)c1=O [Compound 96],CX-1 (IC50),[1],0.03 µg/mL
same,Selectivity (ratio of IC50 for CV-1 and IC50 for CX-1),[1],667
same,response vs control in vivo at 2 mg/kg,"[2]; 2 mg/kg, i.p. on day 1, 2, 3*, 6*, 9*, 13*, 16* (*4 mg/kg)",253%
same,IC50,[6]; 24 h treatment,0.09 µg/mL
same,Selectivity (CV-1 IC50 / LOX IC50),[6],222
same,IC50,"[3]; read-out: CV-1 (IC50), Table V",20 µg/mL
CCN1CCSC1=CC=c1sc(=Cc2sc3c4ccccc4ccc3[n+]2CC)n(CC)c1=O [Compound 150],CX-1 (IC50),[1],0.01 µg/mL
same,Selectivity (ratio of IC50 for CV-1 and IC50 for CX-1),[1],100
same,response vs control in vivo at 5 mg/kg,"[2]; i.p. on day 1, 2, 9, 13, 16",216%
same,CV-1 (IC50),[3]; [10],1 µg/mL
CCn1c(=Cc2sc(-c3ccccc3)c(-c3ccccc3)[n+]2CC)sc(=CC=C2N(C)c3ccccc3C2(C)C)c1=O [Compound 204],response vs control in vivo at 5 mg/kg,"[2]; i.p. on day 1, 4, 7, 10, 13, 16, 19, 22",174%
CCN1C(=CC=c2sc(=CC3=[N+](CC)CCS3)n(CC)c2=O)C=Cc2ccccc21 [Compound 244],response vs control in vivo at 10 mg/kg,"[2]; i.p. on day 1, 3, 5, 7, 9",153%
CCN1C(=CC=c2oc(=Cc3sc(-c4ccccc4)c(-c4ccccc4)[n+]3CC)n(CC)c2=O)Oc2ccccc21 [Compound 330],IC50,[1],0.025 µg/mL
same,Selectivity (ratio of IC50 for CV-1 and IC50 for CX-1),[1],100
same,response vs control in vivo at 5 mg/kg,"[2]; i.p. on day 1, 3, 5, 7, 9",128%
same,IC50,[3]; [8],2.5 µg/mL
